Publication PMC5645029 (Journal of medicinal chemistry, 2017)
Entries after “also recorded” stand apart in the source; their conditions may differ. Non-standard residues stand in square brackets, D forms with d. Residues, ends and D or L forms follow the SMILES beside them.

Assays:
[1] = test system: MC5R; settings: at 100 μM concentrations, β-galactosidase assay; cited from earlier work
[2] = molecular target: T1, mMC4R (Mus musculus, UniProt P56450); settings: for fold less potent at the MC4R compared to 1: antagonist potency relative to 1
T1 sequence (P56450 whole entry): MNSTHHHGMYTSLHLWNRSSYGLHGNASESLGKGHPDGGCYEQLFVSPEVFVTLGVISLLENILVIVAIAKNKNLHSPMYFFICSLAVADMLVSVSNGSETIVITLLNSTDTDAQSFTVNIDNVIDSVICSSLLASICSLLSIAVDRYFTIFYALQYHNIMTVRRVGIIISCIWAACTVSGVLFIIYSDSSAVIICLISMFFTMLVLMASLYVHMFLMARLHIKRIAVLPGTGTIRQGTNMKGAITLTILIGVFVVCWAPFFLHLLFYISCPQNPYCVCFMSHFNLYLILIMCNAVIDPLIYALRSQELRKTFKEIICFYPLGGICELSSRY

[3] = molecular target: T2, mMC5R (Mus musculus, UniProt P41149); experiment: cell-based
T2 sequence (P41149 whole entry): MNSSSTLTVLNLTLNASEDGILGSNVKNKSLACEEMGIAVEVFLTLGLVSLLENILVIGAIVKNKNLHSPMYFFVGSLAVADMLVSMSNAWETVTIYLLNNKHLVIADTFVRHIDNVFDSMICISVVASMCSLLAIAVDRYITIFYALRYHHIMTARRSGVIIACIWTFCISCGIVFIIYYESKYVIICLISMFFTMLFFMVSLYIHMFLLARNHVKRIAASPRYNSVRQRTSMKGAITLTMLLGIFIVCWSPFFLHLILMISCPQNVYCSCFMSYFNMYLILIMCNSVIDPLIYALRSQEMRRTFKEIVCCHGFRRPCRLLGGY

[4] = molecular target: mouse melanocortin-1 receptor (mouse) (UniProt Q01727)
Sequence of mouse melanocortin-1 receptor (mouse) (Q01727 whole entry): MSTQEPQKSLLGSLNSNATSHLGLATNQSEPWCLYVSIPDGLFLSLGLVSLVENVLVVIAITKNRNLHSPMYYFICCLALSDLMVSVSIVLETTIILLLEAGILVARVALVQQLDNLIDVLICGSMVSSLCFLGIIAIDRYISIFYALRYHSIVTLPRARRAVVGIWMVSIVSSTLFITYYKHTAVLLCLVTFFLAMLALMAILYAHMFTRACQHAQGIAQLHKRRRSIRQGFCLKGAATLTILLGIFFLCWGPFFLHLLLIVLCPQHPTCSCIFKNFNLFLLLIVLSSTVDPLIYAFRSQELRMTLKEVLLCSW

[5] = molecular target: mouse melanocortin-5 receptor (mouse) (UniProt P41149)
Sequence of mouse melanocortin-5 receptor (mouse) (P41149 whole entry): as the sequence (P41149 whole entry) above

[6] = molecular target: mouse melanocortin-3 receptor (mouse) (UniProt P33033)
Sequence of mouse melanocortin-3 receptor (mouse) (P33033 whole entry): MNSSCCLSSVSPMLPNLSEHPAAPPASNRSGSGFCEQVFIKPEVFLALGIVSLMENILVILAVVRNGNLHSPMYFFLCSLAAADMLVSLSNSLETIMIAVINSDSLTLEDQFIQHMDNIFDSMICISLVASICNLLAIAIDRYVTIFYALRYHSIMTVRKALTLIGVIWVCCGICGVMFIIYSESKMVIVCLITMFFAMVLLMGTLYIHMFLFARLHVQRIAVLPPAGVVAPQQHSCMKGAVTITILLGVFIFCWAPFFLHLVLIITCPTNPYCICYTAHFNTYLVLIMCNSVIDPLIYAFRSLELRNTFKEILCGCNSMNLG

[7] = molecular target: mouse melanocortin-4 receptor (mouse) (UniProt P56450)
Sequence of mouse melanocortin-4 receptor (mouse) (P56450 whole entry): as the sequence (P56450 whole entry) above

[8] = molecular target: T3, mMC3R (Mus musculus, UniProt P33033); experiment: AlphaScreen cAMP assay, antagonist activity; settings: Schild paradigm, NDP-MSH
T3 sequence (P33033 whole entry): as the sequence (P33033 whole entry) above

[9] = molecular target: T2, mMC5R
[10] = molecular target: T1, mMC4R; experiment: AlphaScreen cAMP assay, agonist activity; settings: up to 100 μM concentrations
[11] = molecular target: T3, mMC3R; experiment: AlphaScreen cAMP assay, agonist activity; settings: up to 100 μM concentrations
[12] = molecular target: mMC1R (Mus musculus, UniProt Q01727); experiment: AlphaScreen cAMP assay, agonist activity; settings: up to 100 μM concentrations
Sequence of mMC1R (Q01727 whole entry): as the sequence (Q01727 whole entry) above

C[C@@H]1NC(=O)[C@H](CC(N)=O)NC(=O)[C@H](Cc2ccccc2)NC(=O)[C@H](Cc2ccccc2)NC(=O)[C@H](CCCNC(=N)N)NC(=O)[C@@H]2CCCN2C(=O)[C@H]2CCCN2C(=O)[C@H](Cc2ccccc2)NC1=O [Peptide 1, c[Pro-Arg-Phe-Phe-Asn-Ala-Phe-DPro]]
activity at the MC5R [1]: no activity

CC(C)[C@@H]1NC(=O)[C@H](Cc2ccccc2)NC(=O)[C@H](Cc2ccccc2)NC(=O)[C@H](CCCNC(=N)N)NC(=O)[C@@H]2CCCN2C(=O)[C@H]2CCCN2C(=O)[C@H](Cc2ccccc2)NC(=O)[C@H](C)NC1=O [Peptide 13, c[Pro-Arg-Phe-Phe-Val-Ala-Phe-DPro]]
fold less potent at the MC4R compared to 1 [2]: at least 8 fold
EC50 [3]: 510 nM

c[Pro-Arg-Phe-Phe-Nle-Ala-Phe-DPro] (peptide)
agonist EC50 (cAMP AlphaScreen, HEK293 cells stably expressing the receptor) [4]: > 100000 nM
agonist EC50 (cAMP AlphaScreen, HEK293 cells stably expressing the receptor) [5]: > 100000 nM
agonist EC50 (cAMP AlphaScreen, HEK293 cells stably expressing the receptor) [6]: > 100000 nM
agonist EC50 (cAMP AlphaScreen, HEK293 cells stably expressing the receptor) [7]: > 100000 nM

C[C@@H]1NC(=O)[C@H](C)NC(=O)[C@H](Cc2ccccc2)NC(=O)[C@H](Cc2ccccc2)NC(=O)[C@H](CCCNC(=N)N)NC(=O)[C@@H]2CCCN2C(=O)[C@H]2CCCN2C(=O)[C@H](Cc2ccccc2)NC1=O [Peptide 3, c[Pro-Arg-Phe-Phe-Ala-Ala-Phe-DPro]]
fold less potent at the MC4R compared to 1 [2]: 8 fold
EC50 [3]: 250 nM
antagonist activity at the MC3R (in words) [8]: did not possess antagonist activity

CC(C)C[C@@H]1NC(=O)[C@H](Cc2ccccc2)NC(=O)[C@H](Cc2ccccc2)NC(=O)[C@H](CCCNC(=N)N)NC(=O)[C@@H]2CCCN2C(=O)[C@H]2CCCN2C(=O)[C@H](Cc2ccccc2)NC(=O)[C@H](C)NC1=O [Peptide 12, c[Pro-Arg-Phe-Phe-Leu-Ala-Phe-DPro]] (cyclo(RFFLAF[dP]P))
fold less potent at the MC4R compared to 1 [2]: at least 8 fold
EC50 [3]: 110 nM

C[C@@H]1NC(=O)[C@H](CN)NC(=O)[C@H](Cc2ccccc2)NC(=O)[C@H](Cc2ccccc2)NC(=O)[C@H](CCCNC(=N)N)NC(=O)[C@@H]2CCCN2C(=O)[C@H]2CCCN2C(=O)[C@H](Cc2ccccc2)NC1=O [Peptide 2, c[Pro-Arg-Phe-Phe-Dap-Ala-Phe-DPro]]
activity at the MC5R [1]: no activity
EC50 [3]: 60 nM

CCCC[C@@H]1NC(=O)[C@H](Cc2ccccc2)NC(=O)[C@H](Cc2ccccc2)NC(=O)[C@H](CCCNC(=N)N)NC(=O)[C@@H]2CCCN2C(=O)[C@H]2CCCN2C(=O)[C@H](Cc2ccccc2)NC(=O)[C@H](C)NC1=O [Peptide 11, c[Pro-Arg-Phe-Phe-Nle-Ala-Phe-DPro]]
fold less potent at the MC4R compared to 1 [2]: at least 8 fold
activity at the MC5R (in words) [9]: no activity

C[C@@H]1NC(=O)[C@H]([C@@H](C)O)NC(=O)[C@H](Cc2ccccc2)NC(=O)[C@H](Cc2ccccc2)NC(=O)[C@H](CCCNC(=N)N)NC(=O)[C@@H]2CCCN2C(=O)[C@H]2CCCN2C(=O)[C@H](Cc2ccccc2)NC1=O [Peptide 6, c[Pro-Arg-Phe-Phe-Thr-Ala-Phe-DPro]] (cyclo(RFFTAF[dP]P))
fold more potent at the MC4R compared to 13 ([2]; antagonist potency relative to 13): 70 fold
agonist activity at the MC4R (in words) [10]: No agonist activity
agonist activity at the MC3R (in words) [11]: No agonist activity
EC50 [3]: 50 nM
agonist activity at the MC1R (in words) [12]: No agonist activity

N=C(N)NCCC[C@@H]1NC(=O)[C@@H]2CCCN2C(=O)[C@H]2CCCN2C(=O)[C@H](Cc2ccccc2)NC(=O)[C@H](CC(=O)O)NC(=O)[C@H](CC(N)=O)NC(=O)[C@H](Cc2ccccc2)NC(=O)[C@H](Cc2ccccc2)NC1=O [Peptide 16, c[Pro-Arg-Phe-Phe-Asn-Asp-Phe-DPro]] (cyclo(RFFNDF[dP]P))
agonist activity at the MC4R (in words) [10]: did not result in observable agonist or antagonist activity
agonist activity at the MC3R (in words) [11]: did not result in observable agonist or antagonist activity
antagonist activity at the MC3R (in words) [8]: did not result in observable agonist or antagonist activity; also recorded: did not possess antagonist activity

C[C@@H]1NC(=O)[C@H](Cc2c[nH]cn2)NC(=O)[C@H](Cc2ccccc2)NC(=O)[C@H](Cc2ccccc2)NC(=O)[C@H](CCCNC(=N)N)NC(=O)[C@@H]2CCCN2C(=O)[C@H]2CCCN2C(=O)[C@H](Cc2ccccc2)NC1=O [Peptide 10, c[Pro-Arg-Phe-Phe-His-Ala-Phe-DPro]]
mMC5R inverse agonist, percent decrease from basal [9]: 10%
agonist activity at the MC4R (in words) [10]: no agonist activity
agonist activity at the MC3R (in words) [11]: no agonist activity
EC50 [3]: 10 nM
agonist activity at the MC1R (in words) [12]: no agonist activity

N=C(N)NCCC[C@@H]1NC(=O)[C@@H]2CCCN2C(=O)[C@H]2CCCN2C(=O)[C@H](Cc2ccccc2)NC(=O)[C@H](CCC(=O)O)NC(=O)[C@H](CC(N)=O)NC(=O)[C@H](Cc2ccccc2)NC(=O)[C@H](Cc2ccccc2)NC1=O [Peptide 17, c[Pro-Arg-Phe-Phe-Asn-Glu-Phe-DPro]] (cyclo(RFFNEF[dP]P))
activity at the MC5R (in words) [9]: no activity
agonist activity at the MC4R (in words) [10]: did not result in observable agonist or antagonist activity
agonist activity at the MC3R (in words) [11]: did not result in observable agonist or antagonist activity
antagonist activity at the MC3R (in words) [8]: did not result in observable agonist or antagonist activity; also recorded: did not possess antagonist activity

CC[C@@H]1NC(=O)[C@H](Cc2ccccc2)NC(=O)[C@H](Cc2ccccc2)NC(=O)[C@H](CCCNC(=N)N)NC(=O)[C@@H]2CCCN2C(=O)[C@H]2CCCN2C(=O)[C@H](Cc2ccccc2)NC(=O)[C@H](C)NC1=O [Peptide 4, c[Pro-Arg-Phe-Phe-Abu-Ala-Phe-DPro]]
EC50 [3]: 160 nM
antagonist activity at the MC3R (in words) [8]: did not possess antagonist activity

C[C@@H]1NC(=O)[C@H](CC(=O)O)NC(=O)[C@H](Cc2ccccc2)NC(=O)[C@H](Cc2ccccc2)NC(=O)[C@H](CCCNC(=N)N)NC(=O)[C@@H]2CCCN2C(=O)[C@H]2CCCN2C(=O)[C@H](Cc2ccccc2)NC1=O [Peptide 7, c[Pro-Arg-Phe-Phe-Asp-Ala-Phe-DPro]]
agonist activity at the MC4R (in words) [10]: no agonist activity
agonist activity at the MC3R (in words) [11]: no agonist activity
antagonist activity at the MC3R (in words) [8]: did not possess antagonist activity
agonist activity at the MC1R (in words) [12]: no agonist activity

N=C(N)NCCC[C@@H]1NC(=O)[C@@H]2CCCN2C(=O)[C@H]2CCCN2C(=O)[C@H](Cc2ccccc2)NC(=O)[C@H](Cc2ccccc2)NC(=O)[C@H](CC(N)=O)NC(=O)[C@H](Cc2ccccc2)NC(=O)[C@H](Cc2ccccc2)NC1=O [Peptide 20, c[Pro-Arg-Phe-Phe-Asn-Phe-Phe-DPro]]
activity at the MC5R (in words) [9]: partially stimulated

C[C@@H]1NC(=O)[C@H](CCC(=O)O)NC(=O)[C@H](Cc2ccccc2)NC(=O)[C@H](Cc2ccccc2)NC(=O)[C@H](CCCNC(=N)N)NC(=O)[C@@H]2CCCN2C(=O)[C@H]2CCCN2C(=O)[C@H](Cc2ccccc2)NC1=O [Peptide 8, c[Pro-Arg-Phe-Phe-Glu-Ala-Phe-DPro]]
fold less potent at the MC4R compared to 1 [2]: 16 fold
agonist activity at the MC3R (in words) [11]: did not result in measurable activity
EC50 [3]: 700 nM
antagonist activity at the MC3R (in words) [8]: did not result in measurable activity

B1: c[Pro-Arg-Phe-Phe-Phe-Ala-Phe-DPro] (peptide)
peptide: cyclo(PRFFFAF[dP])
SMILES: C[C@@H]1NC(=O)[C@H](Cc2ccccc2)NC(=O)[C@H](Cc2ccccc2)NC(=O)[C@H](Cc2ccccc2)NC(=O)[C@H](CCCNC(=N)N)NC(=O)[C@@H]2CCCN2C(=O)[C@H]2CCCN2C(=O)[C@H](Cc2ccccc2)NC1=O
agonist EC50 (cAMP AlphaScreen, HEK293 cells stably expressing the receptor) [4]: > 100000 nM
agonist EC50 (cAMP AlphaScreen, HEK293 cells stably expressing the receptor) [5]: > 100000 nM
agonist EC50 (cAMP AlphaScreen, HEK293 cells stably expressing the receptor) [6]: > 100000 nM
agonist EC50 (cAMP AlphaScreen, HEK293 cells stably expressing the receptor) [7]: > 100000 nM

B2: c[Pro-Arg-Phe-Phe-Asn-Glu-Phe-DPro] (peptide)
peptide: cyclo(PRFFNEF[dP])
SMILES: N=C(N)NCCC[C@@H]1NC(=O)[C@@H]2CCCN2C(=O)[C@H]2CCCN2C(=O)[C@H](Cc2ccccc2)NC(=O)[C@H](CCC(=O)O)NC(=O)[C@H](CC(N)=O)NC(=O)[C@H](Cc2ccccc2)NC(=O)[C@H](Cc2ccccc2)NC1=O
agonist EC50 (cAMP AlphaScreen, HEK293 cells stably expressing the receptor) [5]: > 100000 nM
agonist EC50 (cAMP AlphaScreen, HEK293 cells stably expressing the receptor) [6]: > 100000 nM
agonist EC50 (cAMP AlphaScreen, HEK293 cells stably expressing the receptor) [7]: > 100000 nM

B3: c[Pro-Arg-Phe-Phe-Asn-His-Phe-DPro] (peptide)
peptide: cyclo(PRFFNHF[dP])
SMILES: N=C(N)NCCC[C@@H]1NC(=O)[C@@H]2CCCN2C(=O)[C@H]2CCCN2C(=O)[C@H](Cc2ccccc2)NC(=O)[C@H](Cc2c[nH]cn2)NC(=O)[C@H](CC(N)=O)NC(=O)[C@H](Cc2ccccc2)NC(=O)[C@H](Cc2ccccc2)NC1=O
agonist EC50 (cAMP AlphaScreen, HEK293 cells stably expressing the receptor) [5]: > 100000 nM
agonist EC50 (cAMP AlphaScreen, HEK293 cells stably expressing the receptor) [6]: > 100000 nM
agonist EC50 (cAMP AlphaScreen, HEK293 cells stably expressing the receptor) [7]: > 100000 nM

B4: c[Pro-Arg-Phe-Phe-Asn-Leu-Phe-DPro] (peptide)
peptide: cyclo(PRFFNLF[dP])
SMILES: CC(C)C[C@@H]1NC(=O)[C@H](CC(N)=O)NC(=O)[C@H](Cc2ccccc2)NC(=O)[C@H](Cc2ccccc2)NC(=O)[C@H](CCCNC(=N)N)NC(=O)[C@@H]2CCCN2C(=O)[C@H]2CCCN2C(=O)[C@H](Cc2ccccc2)NC1=O
agonist EC50 (cAMP AlphaScreen, HEK293 cells stably expressing the receptor) [5]: > 100000 nM
